Data set [1] relates to aromatase (cyp19a1). Nature of the data set: cyp19a gene expression (qPCR) in exposed zebrafish embryos. Format: in vivo, zebrafish (Danio rerio). To be noted: exposed 48–120 hpf; Figure S1.
In data set [2] the test system is vtg1 - fluorescence. To be noted: 21 days (adults), cited from earlier work.
Data set [3] deals with vtg1 - mRNA. The following applies: cited from earlier work; for EC50: * mean of an approximate range, read-out: EC50 (vtg1 - mRNA); for LogEC50 (vtg1 - mRNA): log of EC50 in μM.
In data set [4] the test system is cyp19a1b - mRNA. To be noted: 14 days (adults), cited from earlier work.
Data set [5] deals with cyp19a1b - fluorescence. The following applies: 0-96 h, cited from earlier work; for LogEC50 (cyp19a1b - fluorescence): log of EC50 in μM.
The subject of data set [6] is brain aromatase (cyp19a1b). Description: cyp19a1b gene expression (qPCR) in exposed zebrafish embryos. Format: in vivo, zebrafish (Danio rerio). For orientation: Quantitative PCR measures a nucleic acid by following its amplification.
In data set [7] the test system is vitellogenin 1 (vtg1). Nature of the data set: vtg1 gene expression (qPCR) in exposed zebrafish embryos.
The test system of data set [8] is vtg - blood. The following applies: cited from earlier work; for LogEC50 (vtg - blood): log of EC50 in μM.
For data set [9], the system named is vtg - blood. The following applies: 8 days (adults), cited from earlier work.
Data set [10] concerns cyp19a1b - mRNA. To be noted: cited from earlier work; for LogEC50 (cyp19a1b - mRNA): log of EC50 in μM.
For data set [11], the system named is cyp19a1b - mRNA. The following applies: cited from earlier work.
Data set [12] deals with vtg - blood. The following applies: 21 days (adults), cited from earlier work; for EC50: read-out: EC50 (vtg - blood); for LogEC50 (vtg - blood): log of EC50 in μM.
Data set [13] can be described thus: acute toxicity test from 48–120 hpf based on the OECD FET test. The format is in vivo, zebrafish (Danio rerio). The following applies: in vivo; zebrafish embryos exposed 48–120 hpf. An excerpt:
Twenty embryos per treatment were exposed to 5 concentrations of compound of interest in a 10× dilution factor from 48–120 hpf, which is the experimental time in which EDCs will be screened posteriorly. Embryos were exposed from 48–120 hpf rather than 0–96 hpf or 0–120 hpf to avoid unspecific toxicity outside of the EDC testing period, which have been chosen on the basis that endocrine pathways, e.g., thyroid metabolism, are not fully functional until 40–55 hpf in zebrafish embryos. Stock solutions of chemicals to be tested were freshly prepared in exposure medium. The highest concentration for each compound was selected according to its water solubility (Table S1). Exposures were performed in glass vessels to assure maximum bioavailability for hydrophobic compounds, and medium was not exchanged during the experiment.

Data set [14] deals with dio2 - mRNA. Also noted: method as in earlier work. The following applies: 0-120 h, ref [33] (supplement list), cited from earlier work.
For data set [15], the system named is thyroid receptor α (trα). Nature of the data set: trα gene expression (qPCR) in exposed zebrafish embryos. The format is in vivo, zebrafish (Danio rerio). To be noted: exposed 48–120 hpf.
Data set [16] deals with iodothyronine deiodinase 2 (dio2). Description: dio2 gene expression (qPCR) in exposed zebrafish embryos. Format: in vivo, zebrafish (Danio rerio). The following applies: for EC50: Danio rerio.
Data set [17] relates to transthyretin (ttr). Nature of the data set: ttr gene expression (qPCR) in exposed zebrafish embryos. Format: in vivo, zebrafish (Danio rerio). The following applies: for effect on ttr expression: exposed 48–120 hpf; for EC50: Danio rerio.
For data set [18] the following is noted: listed physicochemical property, source not given; cited from earlier work.
Data set [19] relates to thyroid peroxidase (tpo). Nature of the data set: tpo gene expression (qPCR) in exposed zebrafish embryos. To be noted: for EC50: Danio rerio. The format is in vivo, zebrafish (Danio rerio).
Data set [20] concerns tpo - mRNA. The following applies: 48-120 h, ref [32] (supplement list), cited from earlier work.
In data set [21] the test system is iodothyronine deiodinase 1 (dio1). Nature of the data set: dio1 gene expression (qPCR) in exposed zebrafish embryos. The format is in vivo. The following applies: Danio rerio; exposed 48–120 hpf; Figure 4; no unit printed for this gene.
Data set [22] has as its system pax8. Nature of the data set: pax8 gene expression (qPCR) in exposed zebrafish embryos. The following applies: exposed 48–120 hpf. The format is in vivo, zebrafish (Danio rerio).
Setting [23] is: E2 1 µM alone, rescue experiment.
The mark [24] stands for this setting: log of EC50 in μM, 48-120 h, our study.
Where [25] appears, read: exogenous T3, 48–120 hpf, downregulated.

Like-named read-outs stand apart in the source and are kept apart here.

Broadly, the EC50 is the midpoint of the concentration-response curve. Take `C[C@]12CC[C@@H]3c4ccc(O)cc4CC[C@H]3[C@@H]1CC[C@@H]2O` [E2, 17β-estradiol]: the “response of cyp19a” value in data set [1] is “no response”. For the same molecule, the EC50 is around 0.55 nM in [2] (ref [17] (supplement list: Zeng 2005)); around 30 nM in data set [3] (0-120 h, ref [11] (supplement list: Muncke 2006)); around 180 nM in data set [3] (0-168 h, ref [10] (supplement list: Chen 2018)); 0.4 nM in data set [4] (effects only detected in males, ref [9] (supplement list: Halm 2002)); 3.4 nM in [5] (ref [2] (supplement list: Petersen 2013)); 2.4 nM in [5] (ref [3] (supplement list: Brion 2012)). The EC50 in data set [6] (Danio rerio, zebrafish embryos exposed 48–120 hpf, mRNA by qPCR) is 90 nM; in data set [7] (Danio rerio, read-out: EC50 vtg1), 190 nM; in [8] (14 days (adults), ref [14] (supplement list: Brian 2005)) it was 0.09 nM; in data set [8] (24 days (adults), ref [13] (supplement list: Van den Belt 2004)) it was 0.6 nM; in data set [9] (ref [12] (supplement list: Rose 2002)), 0.2 nM; in data set [10] (0-72 h, * mean of an approximate range, ref [4] (supplement list: Lassiter 2007)) it was around 10 nM. The EC50 in [10] (0-96 h, ref [3] (supplement list: Brion 2012)) is 4.1 nM; in data set [10] (2-48 h, * mean of an approximate range, ref [6] (supplement list: Kishida 2001)) it was around 10 nM; in data set [10] (72-96 h, * mean of an approximate range, ref [5] (supplement list: Chung 2011)), around 5.5 nM; in data set [12] (* mean of an approximate range, ref [16] (supplement list: Parks 1999)), around 0.6 nM; in data set [12] (ref [15] (supplement list: Dammann 2011)), 0.09 nM. The “LogEC50 (vtg1 - fluorescence)” value in [2] (log of EC50 in μM, ref [17] (supplement list)) is reported as -3.26. Besides, the “LogEC50 (vtg1 - mRNA)” value in [3] (0-120 h, ref [11] (supplement list)) was -1.523; in data set [3] (0-168 h, ref [10] (supplement list)) it was -0.757. Besides, the “LogEC50 (cyp19a1b - mRNA)” value in data set [4] (log of EC50 in μM, males, ref [9] (supplement list)) is -3.398; in data set [10] (0-72 h, ref [4] (supplement list)), -2; in [10] (0-96 h, ref [3] (supplement list)), -2.387; in [10] (2-48 h, ref [6] (supplement list)) it was -2; in [10] (72-96 h, ref [5] (supplement list)) it was -2.26. Besides, the results for the “LogEC50 (cyp19a1b - fluorescence)” value in data set [5] (ref [2] (supplement list)) and in data set [5] (ref [3] (supplement list)) were -2.469 and -2.62, respectively. Besides, in data set [6] (setting [23]), the “FI cyp19a1b, single exposure” value was found to be 64.54. The “LogEC50 (cyp19a1b mRNA)” value in [6] (setting [24]) is recorded as -1.046. Also, the “FI vtg1, single exposure” value in data set [7] (setting [23]) is on record as 394.39. Moreover, in [7] (setting [24]), the “LogEC50 (vtg1 mRNA)” value is given as -0.7212. Also, the “LogEC50 (vtg - blood)” value in [8] (14 days (adults), ref [14] (supplement list)) is listed as -4.046; in data set [8] (24 days (adults), ref [13] (supplement list)), -3.222; in [9] (log of EC50 in μM, ref [12] (supplement list)), -3.699; in [12] (ref [15] (supplement list)) it was -4.046; in data set [12] (ref [16] (supplement list)) it was -3.222. Besides, the “EC50 (cyp19a1b - mRNA), class symbol” value is on record as “n.e” in data set [11] (7 days (adults), ref [7] (supplement list: Hinfray 2006)) and “n.e” in data set [11] (21 days (adults), ref [8] (supplement list: Kallivretaki 2006)).

In general, LC50 refers to the concentration that kills 50% of the test population. In data set [13], `CCCCC(O)(Cn1cncn1)c1ccc(Cl)cc1Cl` (stereo not drawn) [HEX, hexaconazole] came in with an LC50 of 23400 nM. For the same molecule, the EC50 in data set [14] (* mean of an approximate range) is around 3980 nM; in data set [16] (zebrafish embryos exposed 48–120 hpf, mRNA by qPCR, read-out: EC50 dio2) it was 2220 nM. Further, the “LogEC50 (dio2 - mRNA)” value in data set [14] (log of EC50 in μM) is reported as 0.5999; in data set [16] (setting [24]), 0.3464. Moreover, in data set [15], the “effect on trα expression” value is recorded as “remained unaltered”. In data set [17], the “effect on ttr expression” value is on record as “remained unaltered”.

Turning to `Cn1cc[nH]c1=S` [MMI, methimazole], the Water solubility in data set [18] was 277.5 mg/mL. For the same molecule, the concentration for a half-maximal effect (EC50) in [19] (zebrafish embryos exposed 48–120 hpf, mRNA by qPCR, read-out: EC50 tpo) was 397000 nM; in data set [20] (main text refs 25, 29), 487000 nM. The “LogEC50 (tpo - mRNA)” value in [19] (setting [24]) is on record as 2.599; in data set [20] (log of EC50 in μM), 2.688. Further, in [15], the “effect on trα expression” value is “None of the other three remaining thyroid markers analyzed were affected”. For the same molecule, the “effect on dio2 expression” value in data set [16] (exposed 48–120 hpf) is “None of the other three remaining thyroid markers analyzed were affected”. Besides, in [17], the “effect on ttr expression” value is “None of the other three remaining thyroid markers analyzed were affected”.

Turning to `N[C@@H](Cc1cc(I)c(Oc2ccc(O)c(I)c2)c(I)c1)C(=O)O` [T3, 3,3′,5-triiodo-L-thyronine], the LC50 in [13] was found to be 6000 nM. For the same molecule, the EC50 in data set [19] (read-out: EC50 tpo, exposed 48–120 hpf, Figure 4, upregulated) was determined as 9.93 nM; in data set [19] (read-out: EC50 tpo, exposure 48–120 hpf, Figure 1, comparison of exposure windows, 48–120 hpf), 4.09 nM; in [19] (read-out: EC50 tpo, zebrafish embryos exposed 48–120 hpf, mRNA by qPCR), 10 nM; in [21], 3.58 nM; in data set [16] (read-out: EC50 dio2, exposed 48–120 hpf, Figure 4, downregulated) it was 0.28 nM; in data set [16] (read-out: EC50 dio2, exposure 0–96 hpf, Figure 1, comparison of exposure windows, 0–96 hpf) it was 6.81 nM. Also, the EC50 in data set [16] (read-out: EC50 dio2, exposure 48–120 hpf, Figure 1, comparison of exposure windows, 48–120 hpf) amounted to 1.23 nM; in [16] (read-out: EC50 dio2, zebrafish embryos exposed 48–120 hpf, mRNA by qPCR), 0.3 nM; in data set [17] (read-out: EC50 ttr, exposed 48–120 hpf, Figure 4, downregulated), 0.31 nM; in data set [17] (read-out: EC50 ttr, exposure 0–96 hpf, Figure 1, comparison of exposure windows, 0–96 hpf), 0.49 nM; in data set [17] (read-out: EC50 ttr, exposure 48–120 hpf, Figure 1, comparison of exposure windows, 48–120 hpf), 0.32 nM; in data set [17] (read-out: EC50 ttr, zebrafish embryos exposed 48–120 hpf, mRNA by qPCR) it was 0.3 nM. The “effect on tpo expression, exposure 0–96 hpf” value in data set [19] (embryos exposed from 0–96 hpf) is “slight decrease”. The molecule further returned an FI tpo in data set [19] (exogenous T3, 48–120 hpf, upregulated) of 4.11. In addition, in data set [22], the “response of pax8” value is “lack of response”. Moreover, the “FI dio2” value in data set [16] (setting [25]) came out at 0.26. In addition, the FI ttr in data set [17] (setting [25]) is on record as 0.49.

The record behind these values is publication PMC6479714, “Multiplex Analysis Platform for Endocrine Disruption Prediction Using Zebrafish” (International Journal of Molecular Sciences, 2019).
